Reference: article PMC8225045, “Chemical Synthesis and Structure-Activity Relationship Study Yield Desotamide a Analogues with Improved Antibacterial Activity” (Marine Drugs, 2021)
Converted amounts (≈) assume the structure as drawn. Where two headings read alike, the source gives them in different places. Non-standard residues stand in square brackets, D forms with d. Residues, ends and D or L forms follow the SMILES beside them. aIle = CC[C@@H](C)[C@H](N)C(=O)O

Columns and labels:
[1] = system: Enterococcus faecalis ATCC 29212; test: microbe, parasite or virus in culture
Description: (§1) All the synthesized cyclopeptides (7–19) and the desotamide A (1) isolated from S. scopuliridis SCSIO ZJ46 were evaluated for antibacterial activities against a series of Gram-positive pathogens including […] Staphylococcus aureus ATCC29213, Bacillus subtilis BS01, Micrococcus luteus ML01, Enterococcus faecalis ATCC29212; 3 drug-resistant poultry pathogens Staphylococcus simulans LJH13, Enterococcus gallinarum LJH11, Staphylococcus haemolyticus LJH9; 4 clinical methicillin-resistant Staphylococcus aureus (MRSA) shhs-E1, MRSA 16339, MRSA 745524, MRSA 16162. Their antibacterial activities against the […] pathogens Escherichia coli ATCC 13,124 and clinical drug-resistant Klebsiella pneumonia 15580 were also assayed.
(§2) Ampicillin, vancomycin and polymyxin were used as control. The maximum test concentrations for all the compounds were 128 μg/mL.

[2] = system: Enterococcus gallinarum LJH11; test: microbe, parasite or virus in culture
Description: as §1, §2

MRSA 16339 = test: microbe, parasite or virus in culture
Description: as §1, §2

MRSA 745524 = test: microbe, parasite or virus in culture
Description: as §1, §2

Micrococcus luteus ML01 = test: microbe, parasite or virus in culture
Description: as §1, §2

[3] = system: Staphylococcus aureus ATCC 29213; test: microbe, parasite or virus in culture
Description: as §1, §2

[4] = system: Staphylococcus haemolyticus LJH9; test: microbe, parasite or virus in culture
Description: as §1, §2

[5] = system: Staphylococcus simulans LJH13; test: microbe, parasite or virus in culture
Description: as §1, §2

[6] = system: methicillin-resistant Staphylococcus aureus (MRSA) shhsE1; test: microbe, parasite or virus in culture
Description: as §1, §2

Bacillus subtilis BS01 = test: microbe, parasite or virus in culture
Description: as §1, §2

MRSA 16162 = test: microbe, parasite or virus in culture
Description: as §1, §2

Gram-positive pathogens = conditions: for Gram positive antibacterial activity for desotamides (in words): summary, Figure 2; for MIC values against Gram-positive pathogens (summary over the panel): series of Gram-positive pathogens including MRSA, summary of Table 1
Description: as §1, §2

[7] = system: Klebsiella pneumoniae 15580
Description: as §1, §2

[8] = clinical MRSA shhsE1, two-fold serial dilution, Mueller-Hinton broth, 96-well plate, CLSI-based, maximum test concentration 128 μg/mL
[9] = Enterococcus faecalis ATCC 29212, two-fold serial dilution, Mueller-Hinton broth, 96-well plate, CLSI-based, maximum test concentration 128 μg/mL
[10] = Enterococcus gallinarum LJH11, drug-resistant poultry pathogen, two-fold serial dilution, Mueller-Hinton broth, 96-well plate, CLSI-based, maximum test concentration 128 μg/mL
[11] = clinical MRSA 16339, two-fold serial dilution, Mueller-Hinton broth, 96-well plate, CLSI-based, maximum test concentration 128 μg/mL
[12] = clinical MRSA 745524, two-fold serial dilution, Mueller-Hinton broth, 96-well plate, CLSI-based, maximum test concentration 128 μg/mL
[13] = Micrococcus luteus ML01, two-fold serial dilution, Mueller-Hinton broth, 96-well plate, CLSI-based, maximum test concentration 128 μg/mL
[14] = Staphylococcus aureus ATCC 29213, two-fold serial dilution, Mueller-Hinton broth, 96-well plate, CLSI-based, maximum test concentration 128 μg/mL
[15] = Staphylococcus haemolyticus LJH9, drug-resistant poultry pathogen, two-fold serial dilution, Mueller-Hinton broth, 96-well plate, CLSI-based, maximum test concentration 128 μg/mL
[16] = Staphylococcus simulans LJH13, drug-resistant poultry pathogen, two-fold serial dilution, Mueller-Hinton broth, 96-well plate, CLSI-based, maximum test concentration 128 μg/mL
[17] = Bacillus subtilis BS01, two-fold serial dilution, Mueller-Hinton broth, 96-well plate, CLSI-based, maximum test concentration 128 μg/mL
[18] = clinical MRSA 16162, two-fold serial dilution, Mueller-Hinton broth, 96-well plate, CLSI-based, maximum test concentration 128 μg/mL
[19] = clinical drug-resistant Klebsiella pneumoniae 15580, two-fold serial dilution, Mueller-Hinton broth, 96-well plate, CLSI-based, maximum test concentration 128 μg/mL
[20] = Enterococcus faecalis, ATCC29212
[21] = Enterococcus gallinarum, GALLINARUM
[22] = Staphylococcus aureus, ATCC29213
[23] = Staphylococcus haemolyticus, LJH9

Molecule	MIC ([1]; ATCC 29212) [µg/mL]	MIC [2] [µg/mL]	MIC (MRSA 16339; 16339) [µg/mL]	MIC (MRSA 745524; 745524) [µg/mL]	MIC (Micrococcus luteus ML01; ML01) [µg/mL]	MIC ([3]; ATCC 29213) [µg/mL]	MIC [4] [µg/mL]	MIC [5] [µg/mL]	MIC (Bacillus subtilis BS01; BS01) [µg/mL]	MIC (MRSA 16162; 16162) [µg/mL]	Gram positive antibacterial activity for desotamides (in words) (Gram-positive pathogens)	MIC [7]; 15580 [µg/mL]	MIC [6, 8] [µg/mL]	also measured
CC[C@H](C)[C@@H]1NC(=O)[C@H](CC(N)=O)NC(=O)[C@@H](Cc2c[nH]cn2)NC(=O)[C@H](Cc2c[nH]c3ccccc23)NC(=O)[C@H](CC(C)C)NC(=O)[C@@H](CC(C)C)NC1=O [Compound 14, Desotamide A5] (cyclo(I[dL]LW[dH]N))	64 (≈ 82.4 µM)	128 (≈ 165 µM)	64 (≈ 82.4 µM)	64 (≈ 82.4 µM)	64 (≈ 82.4 µM)	64 (≈ 82.4 µM)	64 (≈ 82.4 µM)	64 (≈ 82.4 µM)	64 (≈ 82.4 µM)	64 (≈ 82.4 µM)	2-Fold less active than 1	>128		MIC ([6]; methicillin-resistant shhsE1): 64 µg/mL (≈ 82.4 µM); fold less potent MIC value compared to 1 (Gram-positive pathogens; Gram-positive bacteria, generally): 2 fold
CC(C)C[C@@H]1NC(=O)[C@H](CC(N)=O)NC(=O)CNC(=O)[C@H](Cc2c[nH]c3ccccc23)NC(=O)[C@H](CC(C)C)NC(=O)[C@@H](CC(C)C)NC1=O [Compound 16, Desotamide A7] (cyclo(NL[dL]LWG))	>128	>128	>128	>128	>128	>128	>128	>128	>128	>128	Inactive	>128	>128	MIC values against Gram-positive pathogens (summary over the panel) (Gram-positive pathogens): > 128 µg/mL
CC(C)C[C@@H]1NC(=O)[C@H](Cc2c[nH]c3ccccc23)NC(=O)[C@@H](CCCCN)NC(=O)[C@H](CC(N)=O)NC(=O)[C@H](CC(C)C)NC(=O)[C@@H](CC(C)C)NC1=O [Compound 17, Desotamide A8] (cyclo([dK]WL[dL]LN))	128 (≈ 167 µM)	>128	64 (≈ 83.3 µM)	32 (≈ 41.7 µM)	16 (≈ 20.8 µM)	32 (≈ 41.7 µM)	64 (≈ 83.3 µM)	32 (≈ 41.7 µM)	32 (≈ 41.7 µM)	64 (≈ 83.3 µM)	Slightly less active than 1	>128	64 (≈ 83.3 µM)	
cyclo(Asn-Ile-D-Leu-Leu-Trp-D-His) (head to tail) [Compound 18, Desotamide A9]											Inactive		>128	MIC [1, 9]: >128 µg/mL; MIC [2, 10]: >128 µg/mL; MIC (MRSA 16339; [11]): >128 µg/mL; MIC (MRSA 745524; [12]): >128 µg/mL; MIC (Micrococcus luteus ML01; [13]): >128 µg/mL; MIC [3, 14]: >128 µg/mL; MIC [4, 15]: >128 µg/mL; MIC [5, 16]: >128 µg/mL; MIC (Bacillus subtilis BS01; [17]): >128 µg/mL; MIC (MRSA 16162; [18]): >128 µg/mL; MIC values against Gram-positive pathogens (summary over the panel) (Gram-positive pathogens): > 128 µg/mL; MIC [7, 19]: >128 µg/mL
CN[C@H](CC(C)C)C(=O)N[C@H]1C(=O)N[C@@H](CC(N)=O)C(=O)N[C@H]2C(=O)N[C@H]3C(=O)N[C@H](C(=O)N[C@H](C(=O)O)c4cc(O)cc(O)c4-c4cc3ccc4O)[C@H](O)c3ccc(c(Cl)c3)Oc3cc2cc(c3O[C@@H]2O[C@H](CO)[C@@H](O)[C@H](O)[C@H]2O[C@H]2C[C@](C)(N)[C@H](O)[C@H](C)O2)Oc2ccc(cc2Cl)[C@H]1O [Van, vancomycin, reference compound]														MIC [1, 20]: 4 µg/mL (≈ 2.76 µM); MIC [2, 21]: 8 µg/mL (≈ 5.52 µM); MIC (MRSA 16339; Staphylococcus aureus, MRSA): 0.25 µg/mL (≈ 0.173 µM); MIC (MRSA 745524; Staphylococcus aureus, MRSA): 0.5 µg/mL (≈ 0.345 µM); MIC (Micrococcus luteus ML01; Micrococcus luteus, ML01): 0.25 µg/mL (≈ 0.173 µM); MIC [3, 22]: 0.5 µg/mL (≈ 0.345 µM); MIC [4, 23]: 2 µg/mL (≈ 1.38 µM); MIC ([5]; Staphylococcus simulans, LJH13): 0.25 µg/mL (≈ 0.173 µM); MIC ([6]; Staphylococcus aureus, MRSA): 0.5 µg/mL (≈ 0.345 µM); MIC (Bacillus subtilis BS01; Bacillus subtilis, BS01): 0.125 µg/mL (≈ 0.0863 µM); MIC (MRSA 16162; Staphylococcus aureus, MRSA): 0.5 µg/mL (≈ 0.345 µM)
cyclo(Asn-Ile-D-Leu-Leu-Trp-D-Arg) (head to tail) [Compound 19, Desotamide A0]											Slightly less active than 1		64	MIC [1, 9]: 128 µg/mL; MIC [2, 10]: >128 µg/mL; MIC (MRSA 16339; [11]): 128 µg/mL; MIC (MRSA 745524; [12]): 64 µg/mL; MIC (Micrococcus luteus ML01; [13]): 32 µg/mL; MIC [3, 14]: 64 µg/mL; MIC [4, 15]: 64 µg/mL; MIC [5, 16]: 32 µg/mL; MIC (Bacillus subtilis BS01; [17]): 32 µg/mL; MIC (MRSA 16162; [18]): 64 µg/mL; MIC [7, 19]: >128 µg/mL
CC[C@@H](C)[C@@H]1NC(=O)[C@H](CC(N)=O)NC(=O)[C@@H](CCCNC(=N)N)NC(=O)[C@H](Cc2c[nH]c3ccccc23)NC(=O)[C@H](CC(C)C)NC(=O)[C@@H](CC(C)C)NC1=O [Compound 10, Desotamide A1] (cyclo(LW[dR]N[aIle][dL]))	>128	>128	>128	>128	64 (≈ 80.4 µM)	>128	>128	>128	>128	>128	Inactive	>128		MIC ([6]; methicillin-resistant shhsE1): >128 µg/mL
CC1(C)S[C@@H]2[C@H](NC(=O)[C@H](N)c3ccccc3)C(=O)N2[C@H]1C(=O)O [Amp, ampicillin, reference compound]														MIC [1, 20]: 4 µg/mL (≈ 11.4 µM); MIC [2, 21]: 2 µg/mL (≈ 5.72 µM); MIC (MRSA 16339; Staphylococcus aureus, MRSA): 64 µg/mL (≈ 183 µM); MIC (MRSA 745524; Staphylococcus aureus, MRSA): 16 µg/mL (≈ 45.8 µM); MIC (Micrococcus luteus ML01; Micrococcus luteus, ML01): 0.25 µg/mL (≈ 0.715 µM); MIC [3, 22]: 1 µg/mL (≈ 2.86 µM); MIC [4, 23]: 16 µg/mL (≈ 45.8 µM); MIC ([5]; Staphylococcus simulans, LJH13): 0.25 µg/mL (≈ 0.715 µM); MIC ([6]; Staphylococcus aureus, MRSA): 64 µg/mL (≈ 183 µM); MIC (Bacillus subtilis BS01; Bacillus subtilis, BS01): < 0.0625 µg/mL; MIC (MRSA 16162; Staphylococcus aureus, MRSA): 32 µg/mL (≈ 91.6 µM)
